Laboratory results: patent US20230285336A1, “COMPOSITION FOR PREVENTION AND TREATMENT OF SKIN DISEASES CAUSED BY GENETIC MUTATION COMPRISING FERULIC ACID AND ANALOGS THEREOF” (UNIVERSITY-INDUSTRY COOPERATION GROUP OF KYUNG HEE …, priority 2019, published 2023)

Key:
keratin 6A protein [1] = assay: Keratin 6A protein expression in cultured skin tissue of mouse, immunofluorescence staining; type: cell-based; details: cultured 12 days, compared to control group not treated (FIG. 1)
Experimental: (§1) In order to confirm whether ferulic acid induces the expression of keratin 6A protein from the skin tissue of a mouse, the cross-sections of the cultured skin tissue and the skin tissue of an adult mouse were treated with ferulic acid to confirm the expression level of keratin 6A protein using Western blotting and immunofluorescence staining.
First, after peeling off the skin of a mouse within one day of age, a circular skin piece was spread on a 24-well plate using a 4 mm punch (Kai industries). The cell medium was carefully added with the growth factor Cnt-57 according to the method of CELLnTEC, and the medium was replaced once every two days. […]
Specifically, for cell fluorescence staining, 500 μl of a 4% paraformaldehyde solution (solvent, PBS) was reacted for 20 minutes, and then washed three times with a washing buffer (0.1 M, PBS). […]
(§2) For tissue fluorescence staining, after removing paraffin from the paraffin-coated skin tissue, the tissue was washed three times with a washing buffer (0.1 M, PBS), and reacted with a solution containing hydrogen peroxide (0.1 M PBS, 0.2% H2O2) for 30 minutes to eliminate the activity of endogenous peroxidase. […] Then, after washing three times with a washing buffer (0.1 M, PBS), fluorescence photos were taken using a FluoView FV1000 confocal microscope (Olympus, Tokyo, Japan).

keratin 6A protein [2] = assay: Keratin 6A protein expression in skin tissue of an adult mouse, Western blotting and immunofluorescence staining; type: in vivo
Experimental: as §1
as §2, with “Japan). […]” for “Japan).”
(§3) First, in order to confirm the expression levels of two proteins, keratin 6A and beta-catenin, skin tissue was collected and protein was extracted using a dissolution buffer (pH 7.4, 50 mM, Tris-HCL, 150 mM NaCL, 1 mM EDTA, 1 mM EGTA, 10 mg/mL aprotinin, 10 mg/mL leupeptin, 5 mM phenylmethylsulfonyl fluoride and 1 mM DTT). The extracted protein was quantified using a Bradford reaction solution (Bio-Rad, CA, USA), and 20 μL of the protein was electrophoresed by 10% SDS-PAGE, and transferred to a nitrocellulose membrane (Merck, MA, USA). […]

keratin 6A protein [3] = assay: Keratin 6A protein expression in keratin 5 knock-down kera308 cells, Western blotting; type: cell-based, mouse; details: 100 μM, 24 hours, compared to not treated (FIG. 6)
Experimental: as §3, with “USA). The membrane was reacted with primary antibodies keratin 6A (rabbit anti-keratin 6A, 1:200, Covans, NJ, USA) and β-actin (anti-β-actin extracted from mouse, 1:1000, Santa Cruz, TX, USA), and washed three times with TBS-T (Tris Buffered Saline with Tween 20) for 10 minutes, and then the membrane was reacted with a secondary antibody (Santa Cruz, TX, USA) for 1 hour.” for “USA).”
The cells were precultured for 15 hours after attaching 1×10^6 cells/well of kera308 cells, and cultured for 24 hours after being treated with 100 μM ferulic acid. The harvested cells were centrifuged at 13,000 rpm for 5 minutes to take the supernatant, and then the protein concentration was quantified using Bradford assay (BioRed). […]

beta-catenin protein [4] = assay: Beta-catenin protein expression in skin epidermal stem cells, immunofluorescence staining and Western blotting; type: cell-based, mouse; details: skin epidermal stem cells (FIGS. 7 and 8)
Experimental: (§4) In order to confirm whether ferulic acid regulates beta-catenin protein, an experiment was carried out to confirm the expression levels of beta-catenin protein and c-myc protein in epidermal cells and dermal cells of the skin.
(§5) The expression levels of beta-catenin protein and c-myc protein after treating skin epidermal stem cells with ferulic acid, and the expression levels of beta-catenin protein and c-myc protein after treating skin epidermal stem cells with ferulic acid together with LiCl, which is a beta-catenin protein inducer, were confirmed using immunofluorescence staining and Western blotting.
(§6) First, for immunofluorescence staining, the cell fluorescence staining method of Example 1 was referred to. At this time, beta-catenin (anti-beta-catenin extracted from mouse, 1:200, Invitrogen, CA, USA) was used instead of keratin 6A as a primary antibody, and Alexa 647 (anti-mouse IgG derived from goat, 1:1000, Invitrogen, CA, USA) was used instead of Alexa 488 (anti-rabbit IgG extracted from donkey, 1:1000, Invitrogen, CA, USA) as a secondary antibody.
(§7) In addition, for Western blotting, the Western blotting method of Example 1 was referred to. In this case, beta-catenin (anti-beta catenin extracted from mouse, 1:200, Invitrogen, CA, USA) was used instead of keratin 6A as a primary antibody.

c-myc protein [5] = assay: c-myc protein expression in skin epidermal stem cells; type: cell-based, mouse; details: skin epidermal stem cells (FIGS. 7 and 8)
Experimental: as §4, §5, §6, §7

beta-catenin protein [6] = assay: Beta-catenin protein expression in skin dermal stem cells, immunofluorescence staining and Western blotting; type: cell-based, mouse; details: skin dermal stem cells (FIGS. 9 and 10)
Experimental: as §4
as §5, with “dermal” for “epidermal”
as §6, §7

c-myc protein [7] = assay: c-myc protein expression in skin dermal stem cells; type: cell-based, mouse; details: skin dermal stem cells (FIGS. 9 and 10)
Experimental: as §4
as §5, with “dermal” for “epidermal”
as §6, §7

COc1cc(/C=C/C(=O)O)ccc1O [ferulic acid]
expression level of keratin 6A protein (keratin 6A protein [1]): increased | expression level of keratin 6A protein (keratin 6A protein [2]; skin tissue of an adult mouse treated for 3 days and 7 days (FIGS. 2 and 3)): increased significantly | expression level of keratin 6A protein (keratin 6A protein [2]; skin tissue of an adult mouse, 3 days after treating (FIGS. 2 and 3)): particularly high | expression level of keratin 6A protein (keratin 6A protein [3]): increased significantly | expression of beta-catenin protein (beta-catenin protein [4]): suppressed | expression of c-myc protein (c-myc protein [5]): suppressed | amount of beta-catenin protein (beta-catenin protein [6]): increased | amount of c-myc protein (c-myc protein [7]): increased
